Assays:
[1] = tested on: pulmonary and splenic Mycobacterium tuberculosis (H37Rv strain); format: in vivo, C57BL/6 female mice; settings: after 8 weeks of administration; BIBF1120 added to HRZ
H37Rv strain = test: In vitro activity on Mycobacterium tuberculosis (Alamar Blue MIC); format: cell-based; settings: H37Rv standard strain, 7H9 medium, 37° C. 7 d, Alamar Blue 24 h
[2] = tested on: H37Rv in J774A.1 macrophages; test: Macrophage intracellular bactericidal activity; format: cell-based, Mycobacterium tuberculosis; settings: for CFU / log10 CFU: J774A.1, 72 h
Experimental: The macrophage intracellular bactericidal activity is used to evaluate the anti-tuberculosis activities of BIBF1120 alone and BIBF1120+RFP in combination. The specific operating method includes: collecting J774A.1 macrophages into a 50 ml centrifuge tube, and taking 100 μl of macrophages and 900 μl of a cell culture medium, which are added into a 1.5 ml sterile centrifuge tube for 10-fold dilution; counting under a microscope; diluting macrophages to 4*10^5/ml and gently plating the macrophages into a 48-well clear microwell plate, with 1 ml in each well; culturing in an incubator with 5% of CO2 at 37° C. for 24 h after plating; co-culturing MOI=5:1 and 2*10^6 CFU/MLH37Rv with the macrophages; rinsing 2 times with sterile PBS 4 h later to remove extracellular Mycobacterium tuberculosis, and adding a new RPMI cell culture medium; putting into an incubator with 5% of CO2 at 37° C. and culturing for 72 h. discarding RPMI in the 48-well plate 3 days later, adding 200 μl of 0.1% SDS and placing in the incubator for 5 to 10 min, and adding 800 μl of the cell culture medium into each well and mixing well; and after cell lysis, taking 100 μl from each well for 10-, 100-, 1000-, 100000-fold dilution, and inoculating 100 μl on a 7H10 solid medium, spreading it evenly with a spreader and counting CFUs three weeks later.

SMILES	sterilizing of the spleen and the lung [1]	MIC (H37Rv strain) [µg/mL]	bacteriostatic effect administered alone ([2]; BIBF1120 alone, 25 ug/ml)	CFU ([2]; Table 1, BIBF1120 12.5 ug/ml)	log10 CFU ([2]; Table 1, BIBF1120 12.5 ug/ml)	CFU ([2]; Table 1, BIBF1120 25 ug/ml)	log10 CFU ([2]; Table 1, BIBF1120 25 ug/ml)	CFU ([2]; Table 1, BIBF1120 50 ug/ml)	log10 CFU ([2]; Table 1, BIBF1120 50 ug/ml)	CFU ([2]; Table 2, BIBF1120 25 ug/ml)	log10 CFU ([2]; Table 2, BIBF1120 25 ug/ml)	CFU ([2]; Table 1, RFP 2 ug/ml)	log10 CFU ([2]; Table 1, RFP 2 ug/ml)	CFU ([2]; Table 2, RFP 2 ug/ml)	log10 CFU ([2]; Table 2, RFP 2 ug/ml)
CCS(=O)(=O)O.COC(=O)c1ccc2c(c1)NC(=O)/C2=C(\Nc1ccc(N(C)C(=O)CN2CCN(C)CC2)cc1)c1ccccc1 [BIBF1120, Nintedanib]	achieves sterilizing of the spleen and the lung	24.6	no significant bacteriostatic effect	2400000	6.380	1462500	6.165	1077500	6.032	2750000	6.439	–	–	–	–
CO[C@H]1/C=C/O[C@@]2(C)Oc3c(C)c(O)c4c(O)c(c(/C=N/N5CCN(C)CC5)c(O)c4c3C2=O)NC(=O)/C(C)=C\C=C\[C@H](C)[C@H](O)[C@@H](C)[C@@H](O)[C@@H](C)[C@H](OC(C)=O)[C@@H]1C [RFP, rifampicin]	–	–	–	–	–	–	–	–	–	–	–	502500	5.701	202500	5.306

From patent publication US20250099458A1, “USE OF ANTI-IDIOPATHIC PULMONARY FIBROSIS DRUG NINTEDANIB IN TREATMENT OF TUBERCULOSIS” (Beijing Chest Hospital, Capital Medical University, priority 2022, published 2025)
